Drawing on patent US10494376B2, “Tetrahydroisoquinoline derived PRMT5-inhibitors” (CTXT PTY LTD, priority 2014, dated 2019), this text covers IC50 for 27 molecules.

Structures can show the parent of a compound that is named as a salt.

Chain of Full-length PRMT5 enzyme (NCBI Reference sequence NP_006100.2) co-expressed with His6-MEP50 (O14744 whole entry): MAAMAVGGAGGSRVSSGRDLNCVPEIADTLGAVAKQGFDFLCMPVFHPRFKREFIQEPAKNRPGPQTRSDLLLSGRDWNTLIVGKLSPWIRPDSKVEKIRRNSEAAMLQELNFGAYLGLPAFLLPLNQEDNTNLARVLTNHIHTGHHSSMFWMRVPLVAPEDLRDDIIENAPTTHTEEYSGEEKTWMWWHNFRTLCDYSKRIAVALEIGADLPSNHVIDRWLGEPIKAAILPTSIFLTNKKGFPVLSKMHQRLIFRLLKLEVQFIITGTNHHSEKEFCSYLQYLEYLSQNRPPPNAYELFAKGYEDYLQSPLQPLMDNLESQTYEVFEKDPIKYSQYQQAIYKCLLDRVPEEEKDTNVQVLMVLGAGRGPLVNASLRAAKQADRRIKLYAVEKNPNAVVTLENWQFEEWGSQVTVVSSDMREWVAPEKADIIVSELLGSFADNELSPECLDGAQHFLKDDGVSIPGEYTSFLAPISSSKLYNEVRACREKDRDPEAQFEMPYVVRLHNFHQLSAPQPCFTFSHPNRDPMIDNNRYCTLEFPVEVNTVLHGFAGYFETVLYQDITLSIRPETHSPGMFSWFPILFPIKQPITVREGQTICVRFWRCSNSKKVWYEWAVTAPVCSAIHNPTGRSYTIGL
Chain of Full-length PRMT5 enzyme (NCBI Reference sequence NP_006100.2) co-expressed with His6-MEP50 (Q9BQA1 whole entry partner): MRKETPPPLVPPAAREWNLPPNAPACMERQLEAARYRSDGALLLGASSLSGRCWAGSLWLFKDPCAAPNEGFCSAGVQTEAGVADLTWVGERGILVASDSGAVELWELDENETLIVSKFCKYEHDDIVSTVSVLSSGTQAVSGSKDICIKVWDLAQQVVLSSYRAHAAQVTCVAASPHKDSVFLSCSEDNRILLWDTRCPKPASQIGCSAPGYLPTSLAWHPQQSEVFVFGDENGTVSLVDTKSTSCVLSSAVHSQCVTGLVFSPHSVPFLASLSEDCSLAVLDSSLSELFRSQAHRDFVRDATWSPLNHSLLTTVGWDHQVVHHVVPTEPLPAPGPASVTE

The assay has as its target Full-length PRMT5 enzyme (NCBI Reference sequence NP_006100.2) co-expressed with His6-MEP50 (Homo sapiens (Human), UniProt O14744). As to the kind of experiment: Revised PRMT5 Biochemical Assay. The settings on record: 1 μM peptide substrate, 1 μM S-Adenosyl methionine, 4 hours at 37 degree Celsius, Transcreener EPIGEN fluorescence polarisation. The procedure:
Compounds of the invention may be tested for in vitro activity in the following assay: A histone H4 derived peptide is used as substrate (amino acid sequence: […]N H2). Full-length PRMT5 enzyme (NCBI Reference sequence NP_006100.2) was co-expressed with His6-MEP50 in insect cells and purified via Nickel immobilized metal affinity and gel filtration chromatography (“the enzyme”).
The 6 μL reactions are run in Greiner brand black 384-well low volume assay plates. All reactions contained assay buffer (phosphate buffered saline, 0.01% (v/v) Tween-20, 0.01% (w/v) albumin from chicken egg white, 1 mM Dithiothreitol, 1 μM peptide substrate, 1 μM S-Adenosyl methionine, and 15 ng/reaction enzyme, with the enzyme being omitted from negative control reactions. Compounds were added in a volume of 100 nL from dilution series prepared in DMSO, positive and negative control reactions receiving the same volume DMSO without compound. The plates were sealed with adhesive seals and incubated for 4 hours at 37 degree Celsius. Reaction progress was measured using the Transcreener™ EPIGEN methyltransferase assay (BellBrook Labs, Madison, Wis.) as recommended by the manufacturer. To each reaction 2 μL detection mix were added, containing coupling enzymes, fluorescence polarisation tracer, and AMP antibody. Plates were incubated for 90 minutes before being read on a PerkinElmer EnVision™ plate reader in fluorescence polarisation mode. IC50 values were obtained from the raw readings by calculating percent inhibition (%1) for each reaction relative to controls on the same plate (% I=(I−CN)/(CP−CN) where CN/CP are the averages of the negative/positive reactions, respectively), then fitting the %1 data vs. compound concentration [I] to % I=(A+((B−A)/(1+((C/[I])^D)))) where A is the lower asymptote, B is the upper asymptote, C is the IC50 value, and D is the slope.
With `COC(=O)N1CCC(Oc2cc(C(=O)NC[C@@H](O)[C@@H]3Cc4ccccc4CN3)ncn2)CC1` [Example 76, Methyl 4-((6-(((R)-2-hydroxy-2-((S)-1,2,3,4-tetrahydroisoquinolin-3-yl)ethyl)carbamoyl)pyrimidin-4-yl)oxy)piperidine-1-carboxylate dihydrochloride], the IC50 is 262 nM. In other words, the sub-micromolar range.
Consider `O=C(NC[C@@H](O)[C@@H]1Cc2ccccc2CN1)c1ccncc1` [Example 77, N-((R)-2-Hydroxy-2-((S)-1,2,3,4-tetrahydroisoquinolin-3-yl)ethyl)isonicotinamide dihydrochloride], for which it took 8760 nM to reach half-maximal inhibition (IC50).
The result for `O=C(NC[C@@H](O)[C@@H]1Cc2ccccc2CN1)c1cccnc1` [Example 78, N-((R)-2-Hydroxy-2-((S)-1,2,3,4-tetrahydroisoquinolin-3-yl)ethyl)nicotinamide dihydrochloride] reads 1700 nM; that for `O=C(NC[C@@H](O)[C@@H]1Cc2ccccc2CN1)c1ccc(C(=O)N2C3CCC2COC3)c(C(F)F)c1` [Example 85, 4-(3-Oxa-8-azabicyclo[3.2.1]octane-8-carbonyl)-3-(difluoromethyl)-N-((R)-2-hydroxy-2-((S)-1,2,3,4-tetrahydroisoquinolin-3-yl)ethyl)benzamide], 279 nM.
Regarding `O=C(NC[C@@H](O)[C@@H]1Cc2ccccc2CN1)c1ccnc(C(F)(F)F)c1` [Example 86, N-((R)-2-Hydroxy-2-((S)-1,2,3,4-tetrahydroisoquinolin-3-yl)ethyl)-2-(trifluoromethyl)isonicotinamide dihydrochloride], the IC50 is 3820 nM.
The same measure for `COc1cc(C(=O)N2C3CCC2COC3)ccc1C(=O)NC[C@@H](O)[C@@H]1Cc2ccccc2CN1` [Example 87, 4-(3-Oxa-8-azabicyclo[3.2.1]octane-8-carbonyl)-N-((R)-2-hydroxy-2-((S)-1,2,3,4-tetrahydroisoquinolin-3-yl)ethyl)-2-methoxybenzamide hydrochloride]: 57 nM.
The result for `CC(=O)N1CCC(c2nc3cc(C(=O)NC[C@@H](O)[C@@H]4Cc5ccccc5CN4)ccc3[nH]2)CC1` [Example 88, 2-(1-Acetylpiperidin-4-yl)-N-((R)-2-hydroxy-2-((S)-1,2,3,4-tetrahydroisoquinolin-3-yl)ethyl)-1H-benzo[d]imidazole-5-carboxamide] reads 187 nM; that for `CCOc1cc(-c2nnc(C)o2)ccc1C(=O)NC[C@@H](O)[C@@H]1Cc2ccccc2CN1` [Example 89, 2-Ethoxy-N-((R)-2-hydroxy-2-((S)-1,2,3,4-tetrahydroisoquinolin-3-yl)ethyl)-4-(5-methyl-1,3,4-oxadiazol-2-yl)benzamide], 203 nM; that for `O=C(NC[C@@H](O)[C@@H]1Cc2ccccc2CN1)c1ccc(C(=O)N2CCCC2)cc1` [Example 90, N-((R)-2-Hydroxy-2-((S)-1,2,3,4-tetrahydroisoquinolin-3-yl)ethyl)-4-(pyrrolidine-1-carbonyl)benzamide], 947 nM.
Consider `O=C(NC[C@@H](O)[C@@H]1Cc2ccccc2CN1)c1ccc(C(=O)N2C3CCC2CC3)cc1` [Example 91, 4-(7-Azabicyclo[2.2.1]heptane-7-carbonyl)-N-((R)-2-hydroxy-2-((S)-1,2,3,4-tetrahydroisoquinolin-3-yl)ethyl)benzamide], for which the IC50 was found to be 123 nM.
The result for `COC1CCN(C(=O)c2ccc(C(=O)NC[C@@H](O)[C@@H]3Cc4ccccc4CN3)cc2)CC1` [Example 92, N-((R)-2-Hydroxy-2-((S)-1,2,3,4-tetrahydroisoquinolin-3-yl)ethyl)-4-(4-methoxypiperidine-1-carbonyl)benzamide] reads 310 nM.
The same measure for `O=C(NC[C@@H](O)[C@@H]1Cc2ccccc2CN1)c1ccc(C(=O)N2CCCCO2)cc1` [Example 93, N-((R)-2-Hydroxy-2-((S)-1,2,3,4-tetrahydroisoquinolin-3-yl)ethyl)-4-(1,2-oxazinane-2-carbonyl)benzamide]: 759 nM.
Turning to `O=C(NC[C@@H](O)[C@@H]1Cc2ccccc2CN1)c1ccc(C(=O)NC2CCS(=O)(=O)CC2)cc1` [Example 95, N^1-(1,1-Dioxidotetrahydro-2H-thiopyran-4-yl)-N^4-((R)-2-hydroxy-2-((S)-1,2,3,4-tetrahydroisoquinolin-3-yl)ethyl)terephthalamide], the IC50 came to 9710 nM.
The result for `O=C(NC[C@@H](O)[C@@H]1Cc2ccccc2CN1)c1ccc(C(=O)N2Cc3cccnc3C2)cc1` [Example 96, 4-(6,7-Dihydro-5H-pyrrolo[3,4-b]pyridine-6-carbonyl)-N-((R)-2-hydroxy-2-((S)-1,2,3,4-tetrahydroisoquinolin-3-yl)ethyl)benzamide] reads 1380 nM; that for `CC(C)NC(=O)c1ccc(C(=O)NC[C@@H](O)[C@@H]2Cc3ccccc3CN2)cc1` [Example 97, N^1-((R)-2-Hydroxy-2-((S)-1,2,3,4-tetrahydroisoquinolin-3-yl)ethyl)-N^4-isopropylterephthalamide], 18700 nM.
`O=C(NC[C@@H](O)[C@@H]1Cc2ccccc2CN1)c1ccc(Cl)nc1` [Example 98, 6-Chloro-N—((R)-2-hydroxy-2-((S)-1,2,3,4-tetrahydroisoquinolin-3-yl)ethyl)nicotinamide hydrochloride] displayed an IC50 of 230 nM.
`O=C(NC[C@@H](O)[C@@H]1Cc2ccccc2CN1)c1ccc(OC2CCNCC2)nc1` [Example 99, N—((R)-2-Hydroxy-2-((S)-1,2,3,4-tetrahydroisoquinolin-3-yl)ethyl)-6-(piperidin-4-yloxy)nicotinamide trihydrochloride] registered an IC50 of 127 nM.
As to `O=C(NC[C@@H](O)[C@@H]1Cc2ccccc2CN1)c1cc(NC2COC2)ncn1` [Example 107, N—((R)-2-Hydroxy-2-((S)-1,2,3,4-tetrahydroisoquinolin-3-yl)ethyl)-6-(oxetan-3-ylamino)pyrimidine-4-carboxamide], the IC50 stood at 546 nM. This IC50 is about 4.3-fold higher than that of the molecule before.
The result for `CC(NC(=O)c1ccc(C(=O)N2CCOCC2)cc1)[C@@H](O)[C@@H]1Cc2ccccc2CN1` (stereo partly drawn) [Example 109, N-((1R)-1-Hydroxy-1-((S)-1,2,3,4-tetrahydroisoquinolin-3-yl)propan-2-yl)-4-(morpholine-4-carbonyl)benzamide hydrochloride] reads 688 nM; that for `CC(NC(=O)c1ccc(C(=O)N2CCOCC2)cc1)[C@H](O)[C@@H]1Cc2ccccc2CN1` (stereo partly drawn) [Example 110, N-((1S)-1-Hydroxy-1-((S)-1,2,3,4-tetrahydroisoquinolin-3-yl)propan-2-yl)-4-(morpholine-4-carbonyl)benzamide hydrochloride], 1490 nM.
With `Nc1ccc(C(=O)NC[C@@H](O)[C@@H]2Cc3ccccc3CN2)cn1` [Example 111, 6-Amino-N-((R)-2-hydroxy-2-((S)-1,2,3,4-tetrahydroisoquinolin-3-yl)ethyl)nicotinamide dihydrochloride], half-maximal inhibition (IC50) required 4670 nM.
The same measure for `O=C(NC[C@@H](O)[C@@H]1Cc2ccccc2CN1)c1ccc2[nH]ncc2c1` [Example 112, N-((R)-2-Hydroxy-2-((S)-1,2,3,4-tetrahydroisoquinolin-3-yl)ethyl)-1H-indazole-5-carboxamide dihydrochloride]: 2310 nM.
The result for `O=C(NC[C@@H](O)[C@@H]1Cc2ccccc2CN1)c1ccc2[nH]nnc2c1` [Example 114, N-((R)-2-Hydroxy-2-((S)-1,2,3,4-tetrahydroisoquinolin-3-yl)ethyl)-1H-benzo[d][1,2,3]triazole-5-carboxamide dihydrochloride] reads 5490 nM.
The result for `O=C(NC[C@@H](O)[C@@H]1Cc2ccccc2CN1)c1cc(Cl)nc(OC2COC2)c1` [Example 115, 2-Chloro-N-((R)-2-hydroxy-2-((S)-1,2,3,4-tetrahydroisoquinolin-3-yl)ethyl)-6-(oxetan-3-yloxy)isonicotinamide dihydrochloride] reads 2830 nM; that for `CC(=O)N1CCC(Oc2cc(C(=O)NC[C@@H](O)[C@@H]3Cc4ccccc4CN3)cnn2)CC1` [Example 116, 6-((1-Acetylpiperidin-4-yl)oxy)-N-((R)-2-hydroxy-2-((S)-1,2,3,4-tetrahydroisoquinolin-3-yl)ethyl)pyridazine-4-carboxamide dihydrochloride], 1110 nM.
`O=C(NC[C@@H](O)[C@@H]1Cc2ccccc2CN1)c1cccc2c1ncn2C1CCOCC1` [Example 117, N-((R)-2-Hydroxy-2-((S)-1,2,3,4-tetrahydroisoquinolin-3-yl)ethyl)-1-(tetrahydro-2H-pyran-4-yl)-1H-benzo[d]imidazole-4-carboxamide dihydrochloride] gave an IC50 of 487 nM.
In turn, `COC(=O)N1CCC(Oc2cncc(C(=O)NC[C@@H](O)[C@@H]3Cc4ccccc4CN3)c2)CC1` [Example 118, Methyl 4-((5-(((R)-2-hydroxy-2-((S)-1,2,3,4-tetrahydroisoquinolin-3-yl)ethyl)carbamoyl)pyridin-3-yl)oxy)piperidine-1-carboxylate dihydrochloride] came in with an IC50 of 502 nM.
